Assay results reported in patent US11795171B2, “Pyrrolotriazinones and imidazotriazinones as ubiquitin-specific protease 7 inhibitors” (Valo Health, Inc., priority 2014, dated 2023).

molecular target: USP7 (Homo sapiens (Human), UniProt Q93009); assay: USP7 Assay B (Ubitquin-Rhodamine110 Assay); format: biochemical; details: Ub-Rh110 substrate 25 nM
Experimental: Stock compound solutions were stored at −20° C. as 10 mM in DMSO. […] Prestamped assay plates were allowed to come to room temperature on the day of the assay. For the screen, 100 nL of 2 mM was pre-dispensed for a final screening concentration of 10 μM (DMSO(fc)=0.5%). […] Unless otherwise indicated, all follow-up assays were run on triplecate plates. […] Pre-stamped with compounds were either not preincubated or preincubated with USP7 between 30 to 120 minutes prior to the addition of 10 μL of 2×Ub-Rh110 to compound plates. Plates were incubated stacked for either 23 or 45 minutes at room temperature before fluorescence was read on the Envision (Excitation at 485 nm and Emission at 535 nm; Perkin Elmer) or on the PheraSTAR (Excitation at 485 nm and Emission at 535 nm; BMG Labtech).
Data from USP7 Assays A and B were reported as percent inhibition (inh) compared with control wells based on the following equation: % inh=1−((FLU−AveLow)/(AveHigh−AveLow)) where FLU=measured Fluorescence (See Tables 2 and 3). AveLow=average Fluorescence of no enzyme control (n=16). AveHigh=average Fluorescence of DMSO control (n=16). IC50 values were determined by curve fitting of the standard 4 parameter logistic fitting algorithm included in the Activity Base software package: IDBS XE Designer Model205. Data is fitted using the Levenburg Marquardt algorithm.

USP7, sequence (Q93009 208-1102): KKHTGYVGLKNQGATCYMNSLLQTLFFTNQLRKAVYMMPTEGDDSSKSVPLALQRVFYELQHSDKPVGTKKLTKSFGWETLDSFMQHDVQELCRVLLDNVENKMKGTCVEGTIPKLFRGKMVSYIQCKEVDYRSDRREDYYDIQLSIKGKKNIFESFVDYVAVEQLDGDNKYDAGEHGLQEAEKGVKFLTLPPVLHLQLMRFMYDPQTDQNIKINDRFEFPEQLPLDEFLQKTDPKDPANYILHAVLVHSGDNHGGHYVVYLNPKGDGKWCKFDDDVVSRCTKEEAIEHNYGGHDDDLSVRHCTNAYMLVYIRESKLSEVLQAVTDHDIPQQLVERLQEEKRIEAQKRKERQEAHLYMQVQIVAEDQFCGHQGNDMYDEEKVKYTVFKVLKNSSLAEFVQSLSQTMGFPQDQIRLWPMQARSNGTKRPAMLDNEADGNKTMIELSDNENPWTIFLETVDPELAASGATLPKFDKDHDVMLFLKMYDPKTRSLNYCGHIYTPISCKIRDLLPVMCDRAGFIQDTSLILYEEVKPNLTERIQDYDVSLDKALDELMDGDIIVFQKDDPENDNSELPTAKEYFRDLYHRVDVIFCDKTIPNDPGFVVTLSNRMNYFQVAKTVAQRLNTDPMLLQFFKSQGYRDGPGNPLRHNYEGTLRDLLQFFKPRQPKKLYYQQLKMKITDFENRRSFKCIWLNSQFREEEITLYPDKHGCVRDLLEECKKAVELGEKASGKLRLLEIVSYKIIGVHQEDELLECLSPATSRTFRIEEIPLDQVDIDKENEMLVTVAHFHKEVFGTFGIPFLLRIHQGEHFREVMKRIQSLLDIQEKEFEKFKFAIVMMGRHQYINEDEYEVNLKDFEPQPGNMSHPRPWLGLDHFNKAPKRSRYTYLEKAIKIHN

First: CN(C)C(=O)c1ccc(-c2ccc(C(=O)N3CCC(O)(Cn4cnn5cccc5c4=O)CC3)cc2)cc1 [Compound I-38, 4′-(4-hydroxy-4-((4-oxopyrrolo[2,1-f][1,2,4]triazin-3(4H)-yl)methyl)piperidine-1-carbonyl)-N,N-dimethyl-[1,1′-biphenyl]-4-carboxamide]
Second: Cn1cnc2cc(-c3ccc(C(=O)N4CCC(O)(Cn5cnn6cccc6c5=O)CC4)cc3)ccc21 [Compound I-46, 3-((4-hydroxy-1-(4-(1-methyl-1H-benzo[d]imidazol-5-yl)benzoyl)piperidin-4-yl)methyl)pyrrolo[2,1-f][1,2,4]triazin-4(3H)-one]
The IC50 of the first is lower: 1 to 10 µM for the first, greater than 10 µM for the second. The first is the more potent here.

`CC(CC(=O)Nc1cc2c(=O)n(CC3(O)CCN(C(=O)C4CC4)CC3)cnn2c1)c1ccc(Cl)cc1` (centres unmarked) [Compound I-113, 3-(4-chlorophenyl)-N-(3-((1-(cyclopropanecarbonyl)-4-hydroxypiperidin-4-yl)methyl)-4-oxo-3,4-dihydropyrrolo[2,1-f][1,2,4]triazin-6-yl)butanamide] and `O=C(NCc1ccc(Cl)cc1)Nc1cc2c(=O)n(CC3(O)CCN(C(=O)C4CC4)CC3)cnn2c1` [Compound I-91, 1-(4-chlorobenzyl)-3-(3-((1-(cyclopropanecarbonyl)-4-hydroxypiperidin-4-yl)methyl)-4-oxo-3,4-dihydropyrrolo[2,1-f][1,2,4]triazin-6-yl)urea] cannot be ordered by IC50: greater than 10 µM for the first, greater than 10 µM for the second.

`O=C(c1ccccc1-c1ccccc1)N1CCC(O)(Cn2cnn3cccc3c2=O)CC1` [Compound I-2, 3-((1-([1,1′-biphenyl]-2-carbonyl)-4-hydroxypiperidin-4-yl)methyl)pyrrolo[2,1-f][1,2,4]triazin-4(3H)-one] and `O=C(c1ccccc1-c1ccsc1)N1CCC(O)(Cn2cnn3cccc3c2=O)CC1` [Compound I-3, 3-((4-hydroxy-1-(2-(thiophen-3-yl)benzoyl)piperidin-4-yl)methyl)pyrrolo[2,1-f][1,2,4]triazin-4(3H)-one] cannot be ordered by IC50: greater than 10 µM for the first, greater than 10 µM for the second.

Compared with `O=C(COc1cccc(Cl)c1Cl)Nc1cc2c(=O)n(CC3(O)CCN(C(=O)C4CC4)CC3)cnn2c1` [Compound I-106, N-(3-((1-(cyclopropanecarbonyl)-4-hydroxypiperidin-4-yl)methyl)-4-oxo-3,4-dihydropyrrolo[2,1-f][1,2,4]triazin-6-yl)-2-(2,3-dichlorophenoxy)acetamide], `Cc1cccc(NC(=O)Nc2cc3c(=O)n(CC4(O)CCN(C(=O)C5CC5)CC4)cnn3c2)c1C` [Compound I-98, 1-(3-((1-(cyclopropanecarbonyl)-4-hydroxypiperidin-4-yl)methyl)-4-oxo-3,4-dihydropyrrolo[2,1-f][1,2,4]triazin-6-yl)-3-(2,3-dimethylphenyl)urea] is higher in IC50: 1 to 10 µM for the first, greater than 10 µM for the second.

`Cc1ccc2[nH]ncc2c1-c1cccc(C(=O)N2CCC(O)(Cn3cnn4cccc4c3=O)CC2)c1` [Compound I-24, 3-((4-hydroxy-1-(3-(5-methyl-1H-indazol-4-yl)benzoyl)piperidin-4-yl)methyl)pyrrolo[2,1-f][1,2,4]triazin-4(3H)-one] and `O=C(c1cccc(-c2ccc(Cl)cc2)c1)N1CCC(O)(Cn2cnn3cccc3c2=O)CC1` [Compound I-12, 3-((1-(4′-chloro-[1,1′-biphenyl]-3-carbonyl)-4-hydroxypiperidin-4-yl)methyl)pyrrolo[2,1-f][1,2,4]triazin-4(3H)-one] fall in the same range of IC50: 1 to 10 µM for the first, 1 to 10 µM for the second.

`O=C(c1cccc(-c2ccc3scnc3c2)c1)N1CCC(O)(Cn2cnn3cccc3c2=O)CC1` [Compound I-23, 3-((1-(3-(benzo[d]thiazol-5-yl)benzoyl)-4-hydroxypiperidin-4-yl)methyl)pyrrolo[2,1-f][1,2,4]triazin-4(3H)-one] and `O=C(c1cccc(-c2ccc3ncccc3c2)c1)N1CCC(O)(Cn2cnn3cccc3c2=O)CC1` [Compound I-21, 3-((4-hydroxy-1-(3-(quinolin-6-yl)benzoyl)piperidin-4-yl)methyl)pyrrolo[2,1-f][1,2,4]triazin-4(3H)-one] fall in the same range of IC50: 1 to 10 µM for the first, 1 to 10 µM for the second.

`CCN(c1ccccc1)c1ccc(C(=O)N2CCC(O)(Cn3cnn4cccc4c3=O)CC2)cc1` [Compound I-72, 3-((1-(4-(ethyl(phenyl)amino)benzoyl)-4-hydroxypiperidin-4-yl)methyl)pyrrolo[2,1-f][1,2,4]triazin-4(3H)-one] and `O=C(c1ccc(Cn2cccn2)cc1)N1CCC(O)(Cn2cnn3cccc3c2=O)CC1` [Compound I-65, 3-((1-(4-((1H-pyrazol-1-yl)methyl)benzoyl)-4-hydroxypiperidin-4-yl)methyl)pyrrolo[2,1-f][1,2,4]triazin-4(3H)-one] fall in the same range of IC50: 1 to 10 µM for the first, 1 to 10 µM for the second.

First: Cc1ccc2c(=O)n(CC3(O)CCN(C(=O)CC(C)c4ccccc4)CC3)cnn12 (centres unmarked) [Compound I-76, 3-((4-hydroxy-1-(3-phenylbutanoyl)piperidin-4-yl)methyl)-7-methylpyrrolo[2,1-f][1,2,4]triazin-4(3H)-one]
Second: CCC(Cc1ccccc1)C(=O)N1CCC(O)(Cn2cnn3cccc3c2=O)CC1 (centres unmarked) [Compound I-60, 3-((1-(2-benzylbutanoyl)-4-hydroxypiperidin-4-yl)methyl)pyrrolo[2,1-f][1,2,4]triazin-4(3H)-one]
The IC50 of the first is lower: 0.2 to 1 µM for the first, 1 to 10 µM for the second.

`N#Cc1ccc(N2CCN(C(=O)N3CCC(O)(Cn4cnn5cccc5c4=O)CC3)CC2)cc1` [Compound I-73, 4-(4-(4-hydroxy-4-((4-oxopyrrolo[2,1-f][1,2,4]triazin-3(4H)-yl)methyl)piperidine-1-carbonyl)piperazin-1-yl)benzonitrile] and `CS(=O)(=O)c1ccc(N2CCN(C(=O)N3CCC(O)(Cn4cnn5cccc5c4=O)CC3)CC2)cc1` [Compound I-74, 3-((4-hydroxy-1-(4-(4-(methylsulfonyl)phenyl)piperazine-1-carbonyl)piperidin-4-yl)methyl)pyrrolo[2,1-f][1,2,4]triazin-4(3H)-one] cannot be ordered by IC50: greater than 10 µM for the first, greater than 10 µM for the second.

First: O=C(c1ccccc1)N1CCC(O)(Cn2cnn3c(-c4ccccc4)ncc3c2=O)CC1 [Compound I-115, 3-((1-benzoyl-4-hydroxypiperidin-4-yl)methyl)-7-phenylimidazo[5,1-f][1,2,4]triazin-4(3H)-one]
Second: O=C(c1cnc(-c2ccccc2)o1)N1CCC(O)(Cn2cnn3cccc3c2=O)CC1 [Compound I-32, 3-((4-hydroxy-1-(2-phenyloxazole-5-carbonyl)piperidin-4-yl)methyl)pyrrolo[2,1-f][1,2,4]triazin-4(3H)-one]
The IC50 of the first is lower: 1 to 10 µM for the first, greater than 10 µM for the second. The first is the more potent here.

`COc1ccc(-c2cccc(C(=O)N3CCC(O)(Cn4cnn5cccc5c4=O)CC3)c2)cc1` [Compound I-8, 3-((4-hydroxy-1-(4′-methoxy-[1,1′-biphenyl]-3-carbonyl)piperidin-4-yl)methyl)pyrrolo[2,1-f][1,2,4]triazin-4(3H)-one] and `O=C(c1cccc(-c2cccc(Cl)c2)c1)N1CCC(O)(Cn2cnn3cccc3c2=O)CC1` [Compound I-13, 3-((1-(3′-chloro-[1,1′-biphenyl]-3-carbonyl)-4-hydroxypiperidin-4-yl)methyl)pyrrolo[2,1-f][1,2,4]triazin-4(3H)-one] fall in the same range of IC50: 1 to 10 µM for the first, 1 to 10 µM for the second.

`O=C(Nc1cccc(F)c1)Nc1cc2c(=O)n(CC3(O)CCN(C(=O)C4CC4)CC3)cnn2c1` [Compound I-96, 1-(3-((1-(cyclopropanecarbonyl)-4-hydroxypiperidin-4-yl)methyl)-4-oxo-3,4-dihydropyrrolo[2,1-f][1,2,4]triazin-6-yl)-3-(3-fluorophenyl)urea] and `Cc1cccc(NC(=O)Nc2cc3c(=O)n(CC4(O)CCN(C(=O)C5CC5)CC4)cnn3c2)c1` [Compound I-86, 1-(3-((1-(cyclopropanecarbonyl)-4-hydroxypiperidin-4-yl)methyl)-4-oxo-3,4-dihydropyrrolo[2,1-f][1,2,4]triazin-6-yl)-3-(m-tolyl)urea] cannot be ordered by IC50: greater than 10 µM for the first, greater than 10 µM for the second.

`N#Cc1ccccc1-c1cccc(C(=O)N2CCC(O)(Cn3cnn4cccc4c3=O)CC2)c1` [Compound I-18, 3′-(4-hydroxy-4-((4-oxopyrrolo[2,1-f][1,2,4]triazin-3(4H)-yl)methyl)piperidine-1-carbonyl)-[1,1′-biphenyl]-2-carbonitrile] and `COc1ccc(OC)c(-c2ccc(C(=O)N3CCC(O)(Cn4cnn5cccc5c4=O)CC3)cc2)c1` [Compound I-40, 3-((1-(2′,5′-dimethoxy-[1,1′-biphenyl]-4-carbonyl)-4-hydroxypiperidin-4-yl)methyl)pyrrolo[2,1-f][1,2,4]triazin-4(3H)-one] cannot be ordered by IC50: greater than 10 µM for the first, greater than 10 µM for the second.

First: O=C(c1ccc(-c2ccc(C(=O)N3CCC(O)(Cn4cnn5cccc5c4=O)CC3)c(Cl)c2)cc1)N1CCCC1 [Compound I-51, 3-((1-(3-chloro-4′-(pyrrolidine-1-carbonyl)-[1,1′-biphenyl]-4-carbonyl)-4-hydroxypiperidin-4-yl)methyl)pyrrolo[2,1-f][1,2,4]triazin-4(3H)-one]
Second: O=C(c1ccc(CN2CCCCC2)cc1Cl)N1CCC(O)(Cn2cnn3cccc3c2=O)CC1 [Compound I-75, 3-((1-(2-chloro-4-(piperidin-1-ylmethyl)benzoyl)-4-hydroxypiperidin-4-yl)methyl)pyrrolo[2,1-f][1,2,4]triazin-4(3H)-one]
The IC50 of the first is lower: 1 to 10 µM for the first, greater than 10 µM for the second. The first is the more potent here.

`O=C(c1ccc(-c2ccc3ncnn3c2)cc1)N1CCC(O)(Cn2cnn3cccc3c2=O)CC1` [Compound I-48, 3-((1-(4-([1,2,4]triazolo[1,5-a]pyridin-6-yl)benzoyl)-4-hydroxypiperidin-4-yl)methyl)pyrrolo[2,1-f][1,2,4]triazin-4(3H)-one] showed an IC50 greater than 10 µM.
